For assay [1], the target named is IKKε (Homo sapiens (Human), UniProt Q14164). Put plainly: TR-FRET kinase assay, IKKε. It counts as biochemical. The note with it: full length recombinant IKKε 0.3 nM, 2x Km ATP, 1 μM peptide, 240 min at 25° C.; geometric mean of minimum four determinations. The text has this: Biological Assay for TBK1 and IKKs:
For assay [2], the target named is TBK1 (Homo sapiens (Human), UniProt Q9UHD2). Description: TR-FRET kinase assay, TBK1. The note with it: read-out: TBK1-IC50; full length recombinant TBK1 2.5 nM, 2x Km ATP, 1 μM peptide, 240 min at 25° C.; geometric mean of minimum four determinations.
Sequence of TBK1 (Q9UHD2 whole entry): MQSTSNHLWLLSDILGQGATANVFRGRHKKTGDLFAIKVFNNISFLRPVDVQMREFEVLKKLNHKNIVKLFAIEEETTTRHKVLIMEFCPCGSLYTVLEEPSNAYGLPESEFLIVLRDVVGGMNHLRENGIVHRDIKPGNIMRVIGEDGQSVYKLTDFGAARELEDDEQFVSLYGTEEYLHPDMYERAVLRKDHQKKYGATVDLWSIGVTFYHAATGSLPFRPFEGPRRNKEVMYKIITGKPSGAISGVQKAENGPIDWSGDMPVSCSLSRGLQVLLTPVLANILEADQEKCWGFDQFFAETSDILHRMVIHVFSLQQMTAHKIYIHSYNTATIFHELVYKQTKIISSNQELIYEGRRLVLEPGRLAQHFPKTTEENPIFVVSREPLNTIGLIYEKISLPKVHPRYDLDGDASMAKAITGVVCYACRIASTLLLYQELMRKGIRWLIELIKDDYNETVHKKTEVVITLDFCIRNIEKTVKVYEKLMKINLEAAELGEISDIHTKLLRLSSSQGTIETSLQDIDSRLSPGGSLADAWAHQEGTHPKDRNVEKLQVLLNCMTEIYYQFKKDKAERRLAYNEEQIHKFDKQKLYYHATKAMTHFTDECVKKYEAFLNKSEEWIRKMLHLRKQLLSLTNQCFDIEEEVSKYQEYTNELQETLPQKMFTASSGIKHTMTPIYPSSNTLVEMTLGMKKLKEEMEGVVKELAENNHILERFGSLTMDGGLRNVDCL

pIC50: −log10 of the molar value.

Sequence of IKKε (Q14164 whole entry): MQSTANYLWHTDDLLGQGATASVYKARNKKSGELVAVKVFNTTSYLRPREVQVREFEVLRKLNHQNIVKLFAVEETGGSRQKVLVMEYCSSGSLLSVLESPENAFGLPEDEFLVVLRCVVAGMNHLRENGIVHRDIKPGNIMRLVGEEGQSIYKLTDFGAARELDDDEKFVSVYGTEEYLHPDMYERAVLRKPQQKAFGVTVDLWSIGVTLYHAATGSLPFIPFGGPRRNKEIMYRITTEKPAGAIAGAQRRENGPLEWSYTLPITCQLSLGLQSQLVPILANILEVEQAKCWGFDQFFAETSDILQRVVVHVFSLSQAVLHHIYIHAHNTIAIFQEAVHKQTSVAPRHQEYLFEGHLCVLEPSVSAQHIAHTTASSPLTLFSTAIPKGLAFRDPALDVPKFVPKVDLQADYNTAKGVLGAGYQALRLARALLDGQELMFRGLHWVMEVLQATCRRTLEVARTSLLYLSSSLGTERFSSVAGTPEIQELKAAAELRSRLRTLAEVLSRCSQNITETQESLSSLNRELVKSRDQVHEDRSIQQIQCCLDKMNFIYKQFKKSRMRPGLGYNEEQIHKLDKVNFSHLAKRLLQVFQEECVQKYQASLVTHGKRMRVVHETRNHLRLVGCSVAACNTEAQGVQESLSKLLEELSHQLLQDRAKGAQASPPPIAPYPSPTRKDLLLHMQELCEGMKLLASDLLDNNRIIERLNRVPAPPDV

In the case of `N#Cc1cc(-c2ncnc3[nH]c(-c4ccc(OCCN5CCCC5)cc4)cc23)ccc1OCC1CC1` [Example 138, 2-(cyclopropylmethoxy)-5-(6-(4-(2-(pyrrolidin-1-yl)ethoxy)phenyl)-7H-pyrrolo[2,3-d]pyrimidin-4-yl)benzonitrile], the pIC50 is 8.41 in assay [1] and 8.23 in assay [2].
For `CC1(C)C(=O)Nc2cc(-c3cc4c(-c5ccc(OC6CCOCC6)c(C#N)c5)ncnc4[nH]3)ccc21` [Example 188, 5-(6-(3,3-dimethyl-2-oxoindolin-6-yl)-7H-pyrrolo[2,3-d]pyrimidin-4-yl)-2-((tetrahydro-2H-pyran-4-yl)oxy)benzonitrile] the same measures were 8.07 and 8.77.
For `COc1cc(-c2cc3c(-c4ccc(O[C@H]5CCN(C(=O)CO)C[C@H]5F)c(C#N)c4)ncnc3[nH]2)ccc1N1CCN(C2COC2)CC1` [Example 145, 2-(((3R,4S)-3-fluoro-1-(2-hydroxyacetyl)piperidin-4-yl)oxy)-5-(6-(3-methoxy-4-(4-(oxetan-3-yl)piperazin-1-yl)phenyl)-7H-pyrrolo[2,3-d]pyrimidin-4-yl)benzonitrile] the same measures were 9.32 and 8.98.
For `CC(C)(C)OC(=O)N1CC[C@@H](Oc2ccc(-c3ccnc4[nH]c(-c5ccc(N6CCOCC6)cc5)nc34)cc2C#N)C1` [Example 302, (R)-tert-butyl 3-(2-cyano-4-(2-(4-morpholinophenyl)-3H-imidazo[4,5-b]pyridin-7-yl)phenoxy)pyrrolidine-1-carboxylate] the same measures were < 6.00 and < 6.00.
As for `N#Cc1cc(-c2ncnc3[nH]c(-c4ccc(N5CCN(CC(F)F)CC5)cc4)cc23)ccc1OC1CCNCC1` [Example 265, 5-(6-(4-(4-(2,2-difluoroethyl)piperazin-1-yl)phenyl)-7H-pyrrolo[2,3-d]pyrimidin-4-yl)-2-(piperidin-4-yloxy)benzonitrile], the negative-log IC50 (pIC50) in assay [1] was 7.23; in assay [2], 7.79.
Consider `N#Cc1cc(-c2ncnc3[nH]c(-c4ccc(N5CCOCC5)cc4)nc23)ccc1OC1CCNCC1` [Example 204, 5-(8-(4-morpholinophenyl)-9H-purin-6-yl)-2-(piperidin-4-yloxy)benzonitrile], for which the negative-log IC50 (pIC50) in assay [1] was 7.08; in assay [2], 7.43.
For `COc1cc(-c2cc3c(-c4ccc(OC5CCN(C(=O)CO)CC5(F)F)c(C#N)c4)ncnc3[nH]2)ccc1N1CCN(C2COC2)CC1` (stereo not drawn) [Example 141, 2-((3,3-difluoro-1-(2-hydroxyacetyl)piperidin-4-yl)oxy)-5-(6-(3-methoxy-4-(4-(oxetan-3-yl)piperazin-1-yl)phenyl)-7H-pyrrolo[2,3-d]pyrimidin-4-yl)benzonitrile] the same measures were 9.16 and 9.12.
Consider `N#Cc1cc(-c2ccnc3[nH]c(-c4ccc(N5CCOCC5)cc4)cc23)ccc1N` [Example 28, 2-amino-5-(2-(4-morpholinophenyl)-1H-pyrrolo[2,3-b]pyridin-4-yl)benzonitrile], for which the figures for the pIC50 in assay [1] and in assay [2] were 6.93 and 7.93, respectively.
The like results for `Cc1cc(N2CCOCC2)ccc1-c1cc2c(-c3ccc(OC4CCNCC4)c(C#N)c3)ncnc2[nH]1` [Example 120, 5-(6-(2-methyl-4-morpholinophenyl)-7H-pyrrolo[2,3-d]pyrimidin-4-yl)-2-(piperidin-4-yloxy)benzonitrile] were, in that order, 6.99 and 7.65.
For `N#Cc1cc(-c2c(F)cnc3[nH]c(-c4ccc(OCCN5CCCC5)cc4)cc23)ccc1OC1CCOCC1` [Example 174, 5-(5-fluoro-2-(4-(2-(pyrrolidin-1-yl)ethoxy)phenyl)-1H-pyrrolo[2,3-b]pyridin-4-yl)-2-((tetrahydro-2H-pyran-4-yl)oxy)benzonitrile] the same measures were 8.08 and 8.20.
On to `CC(=O)N1CCC(Oc2ccc(-c3ncnc4[nH]c(-c5ccc(N6CCOCC6)cc5)nc34)cc2C#N)CC1` [Example 249, 2-((1-acetylpiperidin-4-yl)oxy)-5-(8-(4-morpholinophenyl)-9H-purin-6-yl)benzonitrile], for which the negative logarithm of the IC50 (pIC50) is 7.85 in assay [1] and 8.22 in assay [2].
For `CC(C)(O)c1ccc(-c2cc3c(-c4ccc(OC5CCOCC5)c(C#N)c4)ncnc3[nH]2)cn1` [Example 129, 5-(6-(6-(2-hydroxypropan-2-yl)pyridin-3-yl)-7H-pyrrolo[2,3-d]pyrimidin-4-yl)-2-((tetrahydro-2H-pyran-4-yl)oxy)benzonitrile] the same measures were 7.76 and 8.56.
The like results for `Cn1cc(-c2cc3c(-c4ccc(OC5CCOCC5)c(C#N)c4)ncnc3[nH]2)cn1` [Example 104, 5-(6-(1-methyl-1H-pyrazol-4-yl)-7H-pyrrolo[2,3-d]pyrimidin-4-yl)-2-((tetrahydro-2H-pyran-4-yl)oxy)benzonitrile] were, in that order, 8.09 and 8.42.
The like results for `N#Cc1cc(-c2ccnc3[nH]c(-c4cccc(CN5CCOCC5)c4)cc23)ccc1OC1CCOCC1` [Example 39, 5-(2-(3-(morpholinomethyl)phenyl)-1H-pyrrolo[2,3-b]pyridin-4-yl)-2-((tetrahydro-2H-pyran-4-yl)oxy)benzonitrile] were, in that order, 7.97 and 7.99.
As to `CN1CCN(c2ccc(-c3nc4c(-c5ccc(OC6CCOCC6)c(C#N)c5)ccnc4[nH]3)cc2)CC1` [Example 306, 5-(2-(4-(4-methylpiperazin-1-yl)phenyl)-3H-imidazo[4,5-b]pyridin-7-yl)-2-((tetrahydro-2H-pyran-4-yl)oxy)benzonitrile], the pIC50 in assay [1] is 8.92; in assay [2] it was 8.73.
Consider `N#Cc1cc(-c2ncnc3[nH]c(-c4ccc(N5CCOCC5)c(F)c4)nc23)ccc1OC1CCOCC1` [Example 242, 5-(8-(3-fluoro-4-morpholinophenyl)-9H-purin-6-yl)-2-((tetrahydro-2H-pyran-4-yl)oxy)benzonitrile], for which the pIC50 in assay [1] was 6.00; in assay [2], 8.48.
For `N#Cc1cc(-c2ncnc3[nH]c(-c4ccc(N5CCOCC5)c(F)c4)nc23)ccc1OC1CCNCC1` [Example 244, 5-(8-(3-fluoro-4-morpholinophenyl)-9H-purin-6-yl)-2-(piperidin-4-yloxy)benzonitrile] the same measures were 6.82 and 7.45.
The like results for `N#Cc1cc(-c2ccnc3[nH]c(-c4ccc(N5CCOCC5)cc4)cc23)ccc1O[C@H]1CCNC1` [Example 22, (S)-5-(2-(4-morpholinophenyl)-1H-pyrrolo[2,3-b]pyridin-4-yl)-2-(pyrrolidin-3-yloxy)benzonitrile] were, in that order, 6.88 and 7.40.
The like results for `N#Cc1cc(-c2ccnc3[nH]c(-c4ccc(N5CCOCC5)cc4)nc23)ccc1O[C@@H]1CCNC1` [Example 195, (R)-5-(2-(4-morpholinophenyl)-3H-imidazo[4,5-b]pyridin-7-yl)-2-(pyrrolidin-3-yloxy)benzonitrile] were, in that order, 7.21 and 7.75.
Take `N#Cc1cc(-c2ncnc3[nH]c(-c4ccc(N5CCOCC5)nc4)nc23)ccc1OC1CCOCC1` [Example 243, 5-(8-(6-morpholinopyridin-3-yl)-9H-purin-6-yl)-2-((tetrahydro-2H-pyran-4-yl)oxy)benzonitrile]: the pIC50 is 6.00 in assay [1] and 7.94 in assay [2].
As for `N#Cc1cc(-c2ccnc3[nH]c(-c4ccc(N5CCOCC5)cc4)cc23)ccc1OC1CCOCC1` [Example 48, 5-(2-(4-morpholinophenyl)-1H-pyrrolo[2,3-b]pyridin-4-yl)-2-((tetrahydro-2H-pyran-4-yl)oxy)benzonitrile], the pIC50 was 7.94 in assay [1] and 8.49 in assay [2].
As for `N#Cc1cc(-c2ccnc3[nH]c(-c4ccc(N5CCOCC5)cc4)cc23)ccc1O[C@@H]1CCN(C2COC2)C1` [Example 87, (R)-5-(2-(4-morpholinophenyl)-1H-pyrrolo[2,3-b]pyridin-4-yl)-2-((1-(oxetan-3-yl)pyrrolidin-3-yl)oxy)benzonitrile], the values for the pIC50 in assay [1] and in assay [2] were 7.20 and 7.57, respectively.
The like results for `CNC(=O)c1cccc(-c2cc3c(-c4ccc(OC5CCOCC5)c(C#N)c4)ccnc3[nH]2)c1` [Example 40, 3-(4-(3-cyano-4-((tetrahydro-2H-pyran-4-yl)oxy)phenyl)-1H-pyrrolo[2,3-b]pyridin-2-yl)-N-methylbenzamide] were, in that order, 7.96 and 8.10.
For the compound `CC(C)(C)OC(=O)N1CC[C@H](Oc2ccc(-c3ccnc4[nH]c(-c5ccc(N6CCOCC6)cc5)cc34)cc2C#N)C1` [Example 25, (S)-tert-butyl 3-(2-cyano-4-(2-(4-morpholinophenyl)-1H-pyrrolo[2,3-b]pyridin-4-yl)phenoxy)pyrrolidine-1-carboxylate], the pIC50 in assay [1] is 6.51; in assay [2] it was 6.94.
The like results for `N#Cc1cc(-c2ncnc3[nH]c(-c4ccc(N5CCOCC5)c(F)c4)cc23)ccc1OC1CCOCC1` [Example 156, 5-(6-(3-fluoro-4-morpholinophenyl)-7H-pyrrolo[2,3-d]pyrimidin-4-yl)-2-((tetrahydro-2H-pyran-4-yl)oxy)benzonitrile] were, in that order, 7.85 and 8.56.
As to `N#Cc1nc(-c2ccnc3[nH]c(-c4ccc(N5CCOCC5)cc4)cc23)ccc1OC1CCOCC1` [Example 86, 6-(2-(4-morpholinophenyl)-1H-pyrrolo[2,3-b]pyridin-4-yl)-3-((tetrahydro-2H-pyran-4-yl)oxy)picolinonitrile], the negative logarithm of the IC50 (pIC50) was 7.86 in assay [1] and 8.41 in assay [2].
Consider `N#Cc1cc(-c2ccnc3[nH]c(-c4ccc(N5CCOCC5)cc4)nc23)ccc1OC1CCNCC1` [Example 197, 5-(2-(4-morpholinophenyl)-3H-imidazo[4,5-b]pyridin-7-yl)-2-(piperidin-4-yloxy)benzonitrile], for which the negative logarithm of the IC50 (pIC50) in assay [1] is 6.96; in assay [2] it was 7.54.

Usually pIC50 stands for −log10 of the IC50, conventionally taken in molar units.

The values above are taken from patent publication US10072001B2, “Tank-binding kinase inhibitor compounds” (Gilead Sciences, Inc., priority 2014, dated 2018).
